In patent US20250059205A1, “Heterocyclic Compounds and Methods of Use” (AMGEN INC., priority 2021, published 2025):
pIC50: −log10 of the molar value.

Experiments:
[1] = system: Phosphorylation of ERK1/2 in A-427 cells; assay: Phospho-ERK1/2 MSD Assay (A-427 cells); type: cell-based; conditions: Homo sapiens, A-427, 2 h, 2 h treatment, read-out: p-ERK (A427 cells) IC50
In short: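 ERK1/2 phosphorylation measured by Meso Scale whole-cell lysate assay after A-427 cells were exposed to a titration of compound for 2 h at 37 °C.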

[2] = target: His-tagged KRAS G12D protein (Homo sapiens, UniProt P01116, G12D); assay: KRAS G12D TR-FRET Assay; type: binding
[3] = system: Phosphorylation of ERK1/2 in AsPC-1 cells; assay: Phospho-ERK1/2 MSD Assay (AsPC-1 cells); type: cell-based; conditions: Homo sapiens, ASPC1, 2 h, 2 hours treatment, read-out: p-ERK (AsPC-1 cells) IC50
In short: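 Read-out: MSD electrochemiluminescent detection of phosphorylated ERK1/2 in whole-cell lysates, fitted to a 4-parameter logistic curve for IC50. Prior to lysis, AsPC-1 cells (25,000 per well) received a 2 h compound dose-response at 37 °C.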

[4] = target: GDP-bound KRAS protein (aa 1-169), containing both G12D and C118A amino acid substitutions (Homo sapiens, UniProt P01116, C118A/G12D); assay: KRAS G12D Coupled Nucleotide Exchange Assay; type: biochemical; conditions: 2 h compound pre-incubation
Protocol: Following compound pre-incubation, purified SOS protein (aa 564-1049) and GTP (Roche 10106399001) were added to the assay wells and incubated for an additional 30 min. […] The assay plates were then read on a PerkinElmer EnVision Multilabel Reader, using AlphaScreen® technology, and data were analyzed using a 4-parameter logistic model to calculate IC50 values.

Chain of GDP-bound KRAS protein (aa 1-169), containing both G12D and C118A amino acid substitutions (P01116 1-169 isoform P01116-2 G12D/C118A): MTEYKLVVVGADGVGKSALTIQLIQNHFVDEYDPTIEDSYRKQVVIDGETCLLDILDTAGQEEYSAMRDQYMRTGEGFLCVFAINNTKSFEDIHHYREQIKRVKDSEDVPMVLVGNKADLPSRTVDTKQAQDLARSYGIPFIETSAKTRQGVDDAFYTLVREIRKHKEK
Chain of His-tagged KRAS G12D protein (P01116 1-188 isoform P01116-2 G12D): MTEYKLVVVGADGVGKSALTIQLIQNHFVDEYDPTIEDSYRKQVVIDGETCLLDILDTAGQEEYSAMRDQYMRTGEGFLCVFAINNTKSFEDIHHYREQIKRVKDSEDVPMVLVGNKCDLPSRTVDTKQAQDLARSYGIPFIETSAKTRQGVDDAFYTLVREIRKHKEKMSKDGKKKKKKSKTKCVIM

Question: `CCc1cccc2cc(O)cc(-c3ccc4c(N5C[C@@H]6CC[C@H]5CN6)nc(OC[C@@]56CCCN5C[C@H](F)C6)nc4c3F)c12` [Example 110, 4-(4-((1S,4S)-2,5-diazabicyclo[2.2.2]octan-2-yl)-8-fluoro-2-(((2R,7aS)-2-fluorotetrahydro-1H-pyrrolizin-7a(5H)-yl)methoxy)quinazolin-7-yl)-5-ethylnaphthalen-2-ol] was tested. Which pIC50 [1] did it give?
Answer: 8.00

Question: And the pIC50 [2]?
Answer: 8.40

Question: What about the pIC50 [3] of the same compound?
Answer: 7.59

Question: And the “Avg 2 h Coupled Exchange IC50” value [4]?
Answer: 3 nM

Question: With `CCc1c(F)ccc2cc(O)cc(-c3c(F)cc4c(N5[C@@H]6CC[C@H]5CNC6)nc(OC[C@@H]5C[C@@H](F)CN5C)nc4c3F)c12` [Example 158, 4-(4-((1R,5S)-3,8-diazabicyclo[3.2.1]octan-8-yl)-6,8-difluoro-2-(((2S,4R)-4-fluoro-1-methylpyrrolidin-2-yl)methoxy)quinazolin-7-yl)-5-ethyl-6-fluoronaphthalen-2-ol] as the compound, how does the pIC50 [1] read?
Answer: 6.64

Question: And the pIC50 [2]?
Answer: 8.15

Question: What about the pIC50 [3] of the same compound?
Answer: 6.29

Question: And the “Avg 2 h Coupled Exchange IC50” value [4]?
Answer: 4 nM

Question: What does the source list for `Oc1ccc(-c2c(Cl)cc3c(N4C[C@H]5CC[C@@H](C4)N5)nc(OC[C@@]45CCCN4C[C@H](F)C5)nc3c2F)c2ccccc12` [Example 80, 4-(4-((1R,5S)-3,8-diazabicyclo[3.2. 1]octan-3-yl)-6-chloro-8-fluoro-2-(((2R,7aS)-2-fluorotetrahydro-1H-pyrrolizin-7a(5H)-yl)methoxy)quinazolin-7-yl)naphthalen-1-ol]?
Answer: pIC50 [1]: 6.19; pIC50 [2]: 8.00; pIC50 [3]: 6.22; Avg 2 h Coupled Exchange IC50 [4]: 4 nM

Question: `CCc1c(F)ccc2cc(O)cc(-c3c(F)cc4c(N5[C@@H]6CC[C@H]5CNC6)nc(OC[C@@]56CCCN5C[C@H](F)C6)nc4c3F)c12` [Example 150, 4-(4-((1R,5S)-3,8-diazabicyclo[3.2.1]octan-8-yl)-6,8-difluoro-2-(((2R,7aS)-2-fluorotetrahydro-1H-pyrrolizin-7a(5H)-yl)methoxy)quinazolin-7-yl)-5-ethyl-6-fluoronaphthalen-2-ol] was tested. Which pIC50 [1] did it give?
Answer: 7.52

Question: And the pIC50 [2]?
Answer: 8.52

Question: And the pIC50 [3]?
Answer: 7.03

Question: What about the “Avg 2 h Coupled Exchange IC50” value [4] of the same compound?
Answer: 3 nM

Question: What does the source list for `CCc1c(F)ccc2cc(O)cc(-c3c(F)cc4c(N5C[C@@H]6CC[C@H]5CN6)nc(OC[C@@]56CCCN5C[C@H](F)C6)nc4c3F)c12` [Example 93, 4-(4-((1S,4S)-2,5-diazabicyclo[2.2. 2]octan-2-yl)-6,8-difluoro-2-(((2R,7aS)-2-fluorotetrahydro-1H-pyrrolizin-7a(5H)-yl)methoxy)quinazolin-7-yl)-5-ethyl-6-fluoronaphthalen-2-ol]?
Answer: pIC50 [1]: 8.22; pIC50 [2]: 8.30; pIC50 [3]: 8.05; Avg 2 h Coupled Exchange IC50 [4]: 6 nM

Question: What does the source list for `CCc1c(F)ccc2cc(O)cc(-c3ccc4c(N5C[C@H]6CC[C@@H](C5)N6)nc(OCC5(O)CCCC5)nc4c3F)c12` [Example 133, 4-(4-((1R,5S)-3,8-diazabicyclo[3.2.1]octan-3-yl)-8-fluoro-2-((1-hydroxycyclopentyl)methoxy)quinazolin-7-yl)-5-ethyl-6-fluoronaphthalen-2-ol]?
Answer: pIC50 [1]: 5.61; pIC50 [2]: 8.15; pIC50 [3]: 5.69; Avg 2 h Coupled Exchange IC50 [4]: 6 nM

Question: `Oc1cc(-c2c(Cl)cc3c(N4C[C@H]5CC[C@@H](C4)N5)nc(OC[C@@]45CCCN4C[C@H](F)C5)nc3c2F)c2c(F)c(F)ccc2c1` [Example 81, 4-(4-((1R,5S)-3,8-diazabicyclo[3.2. 1]octan-3-yl)-6-chloro-8-fluoro-2-(((2R,7aS)-2-fluorotetrahydro-1H-pyrrolizin-7a(5H)-yl)methoxy)quinazolin-7-yl)-5,6-difluoronaphthalen-2-ol] was tested. Which pIC50 [1] did it give?
Answer: 7.52

Question: And the pIC50 [2]?
Answer: 8.52

Question: What about the pIC50 [3] of the same compound?
Answer: 7.00

Question: And the “Avg 2 h Coupled Exchange IC50” value [4]?
Answer: 4 nM

Question: How did the pIC50 [1] turn out when `CCc1c(F)ccc2cc(O)cc(-c3c(Cl)cc4c(N5C[C@@H]6CC[C@H]5CN6)nc(OC[C@@]56CCCN5C[C@H](F)C6)nc4c3F)c12` [Example 129, 4-(4-((1S,4S)-2,5-diazabicyclo[2.2.2]octan-2-yl)-6-chloro-8-fluoro-2-(((2R,7aS)-2-fluorotetrahydro-1H-pyrrolizin-7a(5H)-yl)methoxy)quinazolin-7-yl)-5-ethyl-6-fluoronaphthalen-2-ol] was run?
Answer: 7.54

Question: And the pIC50 [2]?
Answer: 8.40

Question: And the pIC50 [3]?
Answer: 7.08

Question: What about the “Avg 2 h Coupled Exchange IC50” value [4] of the same compound?
Answer: 5 nM

Question: With `CN1C[C@H](F)C[C@H]1COc1nc(N2[C@@H]3CNC[C@H]2COC3)c2cc(F)c(-c3cc(O)cc4ccccc34)c(F)c2n1` [Example 18, 4-(4-((1R,5S)-3-oxa-7,9-diazabicyclo[3.3. 1]nonan-9-yl)-6,8-difluoro-2-(((2S,4R)-4-fluoro-1-methylpyrrolidin-2-yl)methoxy)quinazolin-7-yl)naphthalen-2-ol] as the compound, how does the pIC50 [1] read?
Answer: 5.80

Question: And the pIC50 [2]?
Answer: 7.22

Question: And the pIC50 [3]?
Answer: 5.53

Question: And the “Avg 2 h Coupled Exchange IC50” value [4]?
Answer: 18 nM

Question: With `CCc1c(F)ccc2cc(O)cc(-c3ccc4c(N5C[C@H]6CC[C@@H](C5)N6)nc(OC[C@@]56CCCN5C[C@H](F)C6)nc4c3C)c12` [Example 95, 4-(4-((1R,5S)-3,8-diazabicyclo[3.2. 1]octan-3-yl)-2-(((2R,7aS)-2-fluorotetrahydro-1H-pyrrolizin-7a(5H)-yl)methoxy)-8-methylquinazolin-7-yl)-5-ethyl-6-fluoronaphthalen-2-ol] as the compound, how does the pIC50 [1] read?
Answer: 6.70

Question: And the pIC50 [2]?
Answer: 8.00

Question: And the pIC50 [3]?
Answer: 6.64

Question: What about the “Avg 2 h Coupled Exchange IC50” value [4] of the same compound?
Answer: 10 nM

Question: With `Cc1c(-c2cc(O)cc3cccc(Cl)c23)ccc2c(N3C[C@@H]4CC[C@H]3CN4)nc(OC[C@@]34CCCN3C[C@H](F)C4)nc12` [Example 96, 4-(4-((1S,4S)-2,5-diazabicyclo[2.2. 2]octan-2-yl)-2-(((2R,7aS)-2-fluorotetrahydro-1H-pyrrolizin-7a(5H)-yl)methoxy)-8-methylquinazolin-7-yl)-5-chloronaphthalen-2-ol] as the compound, how does the pIC50 [1] read?
Answer: 7.02

Question: And the pIC50 [2]?
Answer: 8.15

Question: And the pIC50 [3]?
Answer: 6.67

Question: What about the “Avg 2 h Coupled Exchange IC50” value [4] of the same compound?
Answer: 5 nM

Question: `CCc1c(F)ccc2cc(O)cc(-c3ccc4c(N5[C@@H]6CC[C@H]5CNC6)nc(OC[C@@]56CCCN5C[C@H](F)C6)nc4c3F)c12` [Example 146, 4-(4-((1R,5S)-3,8-diazabicyclo[3.2.1]octan-8-yl)-8-fluoro-2-(((2R,7aS)-2-fluorotetrahydro-1H-pyrrolizin-7a(5H)-yl)methoxy)quinazolin-7-yl)-5-ethyl-6-fluoronaphthalen-2-ol] was tested. Which pIC50 [1] did it give?
Answer: 7.08

Question: What about the pIC50 [2] of the same compound?
Answer: 9.00

Question: And the pIC50 [3]?
Answer: 6.89

Question: What about the “Avg 2 h Coupled Exchange IC50” value [4] of the same compound?
Answer: 3 nM

Question: With `Oc1cc(-c2ccc3c(N4C[C@H]5CC[C@@H](C4)N5)nc(OC[C@@]45CCCN4C[C@H](F)C5)nc3c2F)c2c(Cl)cccc2c1` [Example 56, 4-(4-((1R,5S)-3,8-diazabicyclo[3.2. 1]octan-3-yl)-8-fluoro-2-(((2R,7aS)-2-fluorotetrahydro-1H-pyrrolizin-7a(5H)-yl)methoxy)quinazolin-7-yl)-5-chloronaphthalen-2-ol] as the compound, how does the pIC50 [1] read?
Answer: 7.64

Question: And the pIC50 [2]?
Answer: 8.30

Question: What about the pIC50 [3] of the same compound?
Answer: 6.96

Question: And the “Avg 2 h Coupled Exchange IC50” value [4]?
Answer: 4 nM

Question: `Oc1cc(-c2c(Cl)cc3c(N4C[C@H]5CC[C@@H](C4)N5)nc(OC[C@@]45CCCN4C[C@H](F)C5)nc3c2F)c2c(Cl)cccc2c1` [Example 86, 4-(4-((1R,5S)-3,8-diazabicyclo[3.2. 1]octan-3-yl)-6-chloro-8-fluoro-2-(((2R,7aS)-2-fluorotetrahydro-1H-pyrrolizin-7a(5H)-yl)methoxy)quinazolin-7-yl)-5-chloronaphthalen-2-ol] was tested. Which pIC50 [1] did it give?
Answer: 7.27

Question: And the pIC50 [2]?
Answer: 8.40

Question: What about the pIC50 [3] of the same compound?
Answer: 6.83

Question: And the “Avg 2 h Coupled Exchange IC50” value [4]?
Answer: 2 nM

Question: Which results are given for `Nc1cc(Cl)c(C(F)(F)F)c(-c2ccc3c(N4C[C@H]5CC[C@@H](C4)N5)nc(OC[C@@]45CCCN4C[C@H](F)C5)nc3c2F)n1` [Example 228, 6-(4-((1R,5S)-3,8-Diazabicyclo[3.2.1]octan-3-yl)-8-fluoro-2-(((2R,7aS)-2-fluorotetrahydro-1H-pyrrolizin-7a(5H)-yl)methoxy)quinazolin-7-yl)-4-chloro-5-(trifluoromethyl)pyridin-2-amine]?
Answer: pIC50 [1]: 7.11; pIC50 [2]: 8.70; pIC50 [3]: 6.52; Avg 2 h Coupled Exchange IC50 [4]: 2 nM

Question: What does the source list for `Oc1cc(-c2ccc3c(N4[C@@H]5CC[C@H]4CNC5)nc(OC[C@@]45CCCN4C[C@H](F)C5)nc3c2F)c2cccnc2c1` [Example 29, 5-(4-((1R,5S)-3,8-diazabicyclo[3.2. 1]octan-8-yl)-8-fluoro-2-(((2R,7aS)-2-fluorotetrahydro-1H-pyrrolizin-7a(5H)-yl)methoxy)quinazolin-7-yl)quinolin-7-ol]?
Answer: pIC50 [1]: < 5.00; pIC50 [2]: 6.79; pIC50 [3]: 5.00; Avg 2 h Coupled Exchange IC50 [4]: 80 nM

Question: `CCc1c(F)ccc2cc(O)cc(-c3c(F)cc4c(N5C[C@H]6CC[C@@H](C5)N6)nc(OC[C@@H]5CCC(=O)N5)nc4c3F)c12` [Example 126, (5S)-5-(((4-((1R,5S)-3,8-diazabicyclo[3.2.1]octan-3-yl)-7-(8-ethyl-7-fluoro-3-hydroxynaphthalen-1-yl)-6,8-difluoroquinazolin-2-yl)oxy)methyl) pyrrolidin-2-one] was tested. Which pIC50 [1] did it give?
Answer: 6.41

Question: And the pIC50 [2]?
Answer: 8.22

Question: What about the pIC50 [3] of the same compound?
Answer: 5.91

Question: What about the “Avg 2 h Coupled Exchange IC50” value [4] of the same compound?
Answer: 2 nM
